Source: patent US6864061B2, “Method for screening compounds for anti-inflammatory activity” (GeneTrol Biotherapeutics, Inc., priority 2000, dated 2005)

Tests used:
Format in all cases: cell-based, human
[1] = system: PKR-overexpressing Namalwa cells (Nam-PKR), IFN-alpha production; experiment: Dose-response inhibition of IFN-alpha production in PMA and poly r(I):poly r(C) treated PKR-overexpressing Namalwa cells; conditions: FIG. 3
[2] = system: PKR-overexpressing Namalwa cells (Nam-PKR), TNF-beta production; experiment: TNF-beta production in PMA/poly I:C-induced PKR-overexpressing Namalwa cells (ELISA); conditions: 1 mM 2-AP; 20 mM PMA priming 20 hr, 200 μg/ml poly I:C induction 3 days; FIG. 2B
Protocol: (§1) PKR-transfected Namalwa cells (Nam-PKR) were cultured at 2.5×10^5 cells/ml in DMEM/F12 medium supplemented with 10% FBS. The cells were treated with 20 mM PMA (priming) for 20 hr followed by treatment with 200 μg/ml poly I:C (induction) for 3 days in the presence of 1 mM 2-aminopurine (2-AP) or in the absence of 2-AP. One set of cells was left untreated (non-induced controls). Following treatment, the culture supernatants were collected and analyzed for TNF-alpha or for TNF-beta by ELISA according to the procedure provided by the supplier of the ELISA kits (R&D Systems). The data for cytokine induction is shown in FIGS. 2A and 2B, which illustrates that the PKR-overexpressing Namalwa cell line produces a high level of proinflammatory cytokine (TNF-alpha) under induction conditions (FIG. 2A) and that the induced levels of TNF-alpha are about 4-fold lower in the presence of the PKR inhibitor, 2-AP.

[3] = system: PKR-overexpressing Namalwa cells (Nam-PKR), TNF-alpha production; experiment: TNF-alpha production in PMA/poly I:C-induced PKR-overexpressing Namalwa cells (ELISA); conditions: 1 mM 2-AP, 20 mM PMA priming 20 hr, 200 μg/ml poly I:C induction 3 days, FIG. 2A
Protocol: as §1

SMILES: Nc1ncc2[nH]cnc2n1 [2-AP, 2-aminopurine]
- inhibition of IFN-alpha production at 1 mM (in words) ([1]; 1 mM 2-AP, both experiments): relatively ineffective
- inhibition of IFN-alpha production at 8 mM (in words) ([1]; 8 mM 2-AP): completely inhibited
- inhibition of IFN-alpha at 5 mM relative to 1 mM ([1]; first experiment): 360 fold
- inhibition of INF-alpha production between 1 mM and 5 mM ([1]; second experiment): 5 fold
- suppression of TNF-beta production level, with vs without the PKR inhibitor [2]: 5 fold
- suppression of TNF-alpha production level, with vs without the PKR inhibitor [3]: about 4 fold
- suppression of TNF-alpha production level, with vs without the PKR inhibitor ([3]; listed as 2 AP): 4 fold
